Eight compounds from ChEMBL document CHEMBL5465560, “Selectivity Literature for EUbOPEN Chemogenomic Library” (2024) can be followed below.

In one test the target is Activated CDC42 kinase 1 (Homo sapiens, UniProt Q07912). The experiment in a line: Selectivity interaction (KinaseProfiler screening (Millipore)) EUB0000601a TNK2. The settings on record: at 3 µM.
Test [1] has as its target T1, NUAK family SNF1-like kinase 1 (Homo sapiens) (UniProt O60285).
T1 sequence (whole entry): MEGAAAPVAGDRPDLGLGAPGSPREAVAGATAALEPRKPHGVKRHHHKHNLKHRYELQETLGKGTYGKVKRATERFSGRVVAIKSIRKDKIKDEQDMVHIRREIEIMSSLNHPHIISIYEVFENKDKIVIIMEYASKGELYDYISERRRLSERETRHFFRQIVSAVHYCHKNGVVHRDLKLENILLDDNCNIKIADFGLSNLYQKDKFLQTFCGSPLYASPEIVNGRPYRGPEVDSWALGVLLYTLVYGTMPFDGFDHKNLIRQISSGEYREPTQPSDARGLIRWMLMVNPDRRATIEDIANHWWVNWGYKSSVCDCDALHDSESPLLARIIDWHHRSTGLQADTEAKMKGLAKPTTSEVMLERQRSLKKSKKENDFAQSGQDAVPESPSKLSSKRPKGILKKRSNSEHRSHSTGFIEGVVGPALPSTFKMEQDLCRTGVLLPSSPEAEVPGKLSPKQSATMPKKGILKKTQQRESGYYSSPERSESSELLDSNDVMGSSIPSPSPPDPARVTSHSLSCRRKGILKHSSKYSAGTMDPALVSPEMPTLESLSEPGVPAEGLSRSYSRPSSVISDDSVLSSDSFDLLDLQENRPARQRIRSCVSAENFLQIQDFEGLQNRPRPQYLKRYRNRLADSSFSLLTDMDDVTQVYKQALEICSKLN
The settings on record: at 10 µM.

Test [2] has as its target Serine/threonine-protein kinase SIK2 (Homo sapiens) (UniProt Q9H0K1). The experiment in a line: Selectivity interaction (KinomeScan (DiscoverX)) EUB0001079a SIK2. Conditions: at 1 µM.
The target in test [3] is Serine/threonine-protein kinase/endoribonuclease IRE1 (Homo sapiens) (UniProt O75460). The experiment in a line: Selectivity interaction (KinomeScan (DiscoverX)) EUB0000092b ERN1. Conditions: at 10 µM.
For test [4], the target named is T2, Myotonin-protein kinase (Homo sapiens) (UniProt Q09013).
T2 sequence (whole entry): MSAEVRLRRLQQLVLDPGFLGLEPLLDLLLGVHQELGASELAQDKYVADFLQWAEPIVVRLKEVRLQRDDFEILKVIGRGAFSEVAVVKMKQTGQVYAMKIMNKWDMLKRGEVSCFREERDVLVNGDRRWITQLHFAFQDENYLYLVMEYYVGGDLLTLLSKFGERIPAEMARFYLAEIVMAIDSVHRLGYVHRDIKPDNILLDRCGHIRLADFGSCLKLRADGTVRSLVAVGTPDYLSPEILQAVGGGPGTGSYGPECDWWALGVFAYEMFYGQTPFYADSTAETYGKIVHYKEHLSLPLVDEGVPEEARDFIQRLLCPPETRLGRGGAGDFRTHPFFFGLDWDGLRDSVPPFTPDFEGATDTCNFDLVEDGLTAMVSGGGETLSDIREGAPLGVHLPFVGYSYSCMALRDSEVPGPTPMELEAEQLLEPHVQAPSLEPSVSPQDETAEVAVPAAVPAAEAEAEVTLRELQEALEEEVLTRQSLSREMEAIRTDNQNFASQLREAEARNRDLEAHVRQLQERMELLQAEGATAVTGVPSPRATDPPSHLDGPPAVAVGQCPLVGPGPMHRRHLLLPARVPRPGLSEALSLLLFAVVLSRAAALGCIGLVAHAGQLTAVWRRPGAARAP
The experiment in a line: Selectivity interaction (KinomeScan (DiscoverX)) EUB0000092b DMPK. The settings on record: at 10 µM.

Test [5] deals with RAC-gamma serine/threonine-protein kinase (Homo sapiens, UniProt Q9Y243). The experiment in a line: Selectivity interaction (Kinase screening (Nanosyn)) EUB0000604a AKT3.
Test [6] has as its target Casein kinase I isoform gamma-2 (Homo sapiens) (UniProt P78368). The experiment in a line: Selectivity interaction (SelectScreen profiling (Invitrogen)) EUB0000607a CSNK1G2. Conditions: at 2 µM.
In test [7] the target is T3, Serine/threonine-protein kinase LATS1 (Homo sapiens) (UniProt O95835).
T3 sequence (whole entry): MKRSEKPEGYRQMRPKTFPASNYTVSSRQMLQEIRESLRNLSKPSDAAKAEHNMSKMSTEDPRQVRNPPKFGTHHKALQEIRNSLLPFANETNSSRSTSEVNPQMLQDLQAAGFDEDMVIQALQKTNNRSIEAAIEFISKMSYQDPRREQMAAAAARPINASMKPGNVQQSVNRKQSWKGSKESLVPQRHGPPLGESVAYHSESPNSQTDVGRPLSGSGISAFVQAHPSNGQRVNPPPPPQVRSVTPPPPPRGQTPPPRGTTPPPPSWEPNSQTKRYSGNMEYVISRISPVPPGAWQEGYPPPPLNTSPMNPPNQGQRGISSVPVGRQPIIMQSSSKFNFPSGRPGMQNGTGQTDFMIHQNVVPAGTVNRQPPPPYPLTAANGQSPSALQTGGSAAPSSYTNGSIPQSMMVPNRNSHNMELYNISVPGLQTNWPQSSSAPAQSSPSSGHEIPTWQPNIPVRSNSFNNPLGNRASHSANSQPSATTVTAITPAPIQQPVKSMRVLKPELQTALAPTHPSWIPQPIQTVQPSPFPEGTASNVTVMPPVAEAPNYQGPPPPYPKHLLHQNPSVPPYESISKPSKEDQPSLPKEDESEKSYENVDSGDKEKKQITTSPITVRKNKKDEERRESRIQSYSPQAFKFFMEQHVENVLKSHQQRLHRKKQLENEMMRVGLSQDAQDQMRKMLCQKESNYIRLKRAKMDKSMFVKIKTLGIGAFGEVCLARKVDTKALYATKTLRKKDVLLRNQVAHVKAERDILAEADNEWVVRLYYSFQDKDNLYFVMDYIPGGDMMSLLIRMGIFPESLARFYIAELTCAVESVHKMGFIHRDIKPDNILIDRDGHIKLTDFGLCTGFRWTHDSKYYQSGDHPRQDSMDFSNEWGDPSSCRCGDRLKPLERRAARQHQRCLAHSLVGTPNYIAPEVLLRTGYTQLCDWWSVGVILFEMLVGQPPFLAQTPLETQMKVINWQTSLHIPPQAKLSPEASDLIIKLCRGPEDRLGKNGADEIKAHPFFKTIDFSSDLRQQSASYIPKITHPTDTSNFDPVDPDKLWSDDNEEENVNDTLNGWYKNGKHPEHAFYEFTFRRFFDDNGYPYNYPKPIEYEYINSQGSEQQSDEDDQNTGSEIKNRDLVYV
The experiment in a line: Selectivity interaction (ActivX KiNativ screen (kinase selectivity in THP-1 cell lysates)) EUB0000639a LATS1. It is filed as subcellular. Conditions: lysate, at 5 µM.

Test [8] addresses MAP kinase-activated protein kinase 2 (Homo sapiens, UniProt P49137). Conditions: at 10 µM.

Serine/threonine-protein kinase/endoribonuclease IRE1 (Homo sapiens), sequence (O75460 19-977 limits assumed): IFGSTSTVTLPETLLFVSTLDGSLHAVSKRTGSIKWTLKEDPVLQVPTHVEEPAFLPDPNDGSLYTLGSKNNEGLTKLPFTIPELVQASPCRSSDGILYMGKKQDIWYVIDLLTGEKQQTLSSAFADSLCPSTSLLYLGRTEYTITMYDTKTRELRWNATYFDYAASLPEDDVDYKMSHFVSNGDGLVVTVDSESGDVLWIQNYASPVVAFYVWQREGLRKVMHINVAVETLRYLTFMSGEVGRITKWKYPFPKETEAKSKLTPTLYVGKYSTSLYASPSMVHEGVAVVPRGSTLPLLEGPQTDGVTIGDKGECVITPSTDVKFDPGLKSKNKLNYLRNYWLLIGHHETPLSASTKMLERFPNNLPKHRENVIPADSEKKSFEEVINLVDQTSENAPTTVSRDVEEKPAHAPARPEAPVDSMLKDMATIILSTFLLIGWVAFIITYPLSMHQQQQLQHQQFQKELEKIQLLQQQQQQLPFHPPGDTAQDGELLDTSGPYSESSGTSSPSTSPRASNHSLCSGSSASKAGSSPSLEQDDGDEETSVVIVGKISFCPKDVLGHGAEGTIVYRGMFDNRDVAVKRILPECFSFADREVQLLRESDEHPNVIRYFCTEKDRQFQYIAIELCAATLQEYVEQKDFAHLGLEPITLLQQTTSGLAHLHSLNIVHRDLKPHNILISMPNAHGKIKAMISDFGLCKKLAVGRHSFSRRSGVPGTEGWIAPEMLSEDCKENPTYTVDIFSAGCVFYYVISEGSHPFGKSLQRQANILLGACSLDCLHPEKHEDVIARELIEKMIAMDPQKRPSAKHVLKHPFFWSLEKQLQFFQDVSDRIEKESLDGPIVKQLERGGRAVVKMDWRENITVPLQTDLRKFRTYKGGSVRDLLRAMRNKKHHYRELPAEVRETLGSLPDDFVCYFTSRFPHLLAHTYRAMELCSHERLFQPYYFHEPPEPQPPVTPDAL
RAC-gamma serine/threonine-protein kinase, sequence (Q9Y243 whole entry, canonical isoform): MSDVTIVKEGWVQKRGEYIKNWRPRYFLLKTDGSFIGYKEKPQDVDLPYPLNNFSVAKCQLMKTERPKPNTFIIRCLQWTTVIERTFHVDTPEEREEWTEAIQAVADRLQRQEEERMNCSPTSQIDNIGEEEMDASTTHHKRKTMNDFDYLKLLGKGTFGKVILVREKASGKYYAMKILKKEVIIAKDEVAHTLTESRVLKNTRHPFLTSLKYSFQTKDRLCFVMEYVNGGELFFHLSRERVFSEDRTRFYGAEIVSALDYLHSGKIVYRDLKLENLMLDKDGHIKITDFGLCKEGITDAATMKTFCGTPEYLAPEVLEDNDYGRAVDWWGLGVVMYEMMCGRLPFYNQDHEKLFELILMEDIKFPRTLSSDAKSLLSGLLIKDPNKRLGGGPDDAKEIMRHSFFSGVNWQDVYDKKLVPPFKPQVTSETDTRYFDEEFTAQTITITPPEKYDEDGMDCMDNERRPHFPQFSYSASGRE
Activated CDC42 kinase 1, sequence (Q07912 whole entry, looked up): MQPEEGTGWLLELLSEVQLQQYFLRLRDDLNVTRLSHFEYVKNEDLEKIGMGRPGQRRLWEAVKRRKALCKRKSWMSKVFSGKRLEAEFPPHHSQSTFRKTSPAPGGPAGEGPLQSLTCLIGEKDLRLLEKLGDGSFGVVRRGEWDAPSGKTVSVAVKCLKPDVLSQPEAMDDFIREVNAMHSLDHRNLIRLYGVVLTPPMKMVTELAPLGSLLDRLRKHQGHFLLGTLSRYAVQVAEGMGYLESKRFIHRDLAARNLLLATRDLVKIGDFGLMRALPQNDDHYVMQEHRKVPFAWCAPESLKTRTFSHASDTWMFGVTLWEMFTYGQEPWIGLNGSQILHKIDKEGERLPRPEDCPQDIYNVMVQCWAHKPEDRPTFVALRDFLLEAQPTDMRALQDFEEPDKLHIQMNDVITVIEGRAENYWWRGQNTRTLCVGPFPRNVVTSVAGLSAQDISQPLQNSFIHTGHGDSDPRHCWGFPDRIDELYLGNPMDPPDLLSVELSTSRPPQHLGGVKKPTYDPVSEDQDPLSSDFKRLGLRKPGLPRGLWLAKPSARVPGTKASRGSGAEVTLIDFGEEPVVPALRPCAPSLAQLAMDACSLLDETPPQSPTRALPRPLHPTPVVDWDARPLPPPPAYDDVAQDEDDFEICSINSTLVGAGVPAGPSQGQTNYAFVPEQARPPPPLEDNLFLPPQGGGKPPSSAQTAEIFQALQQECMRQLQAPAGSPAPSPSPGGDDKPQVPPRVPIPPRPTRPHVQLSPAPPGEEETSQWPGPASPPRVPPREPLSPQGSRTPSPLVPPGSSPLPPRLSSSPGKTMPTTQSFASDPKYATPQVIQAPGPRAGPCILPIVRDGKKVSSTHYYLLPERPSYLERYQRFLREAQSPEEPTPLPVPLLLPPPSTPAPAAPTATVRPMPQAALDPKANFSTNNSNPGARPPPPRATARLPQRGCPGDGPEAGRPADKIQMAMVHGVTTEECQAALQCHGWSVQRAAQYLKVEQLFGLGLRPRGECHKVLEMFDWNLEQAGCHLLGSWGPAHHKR
Serine/threonine-protein kinase SIK2 (Homo sapiens), sequence (Q9H0K1 whole entry, looked up): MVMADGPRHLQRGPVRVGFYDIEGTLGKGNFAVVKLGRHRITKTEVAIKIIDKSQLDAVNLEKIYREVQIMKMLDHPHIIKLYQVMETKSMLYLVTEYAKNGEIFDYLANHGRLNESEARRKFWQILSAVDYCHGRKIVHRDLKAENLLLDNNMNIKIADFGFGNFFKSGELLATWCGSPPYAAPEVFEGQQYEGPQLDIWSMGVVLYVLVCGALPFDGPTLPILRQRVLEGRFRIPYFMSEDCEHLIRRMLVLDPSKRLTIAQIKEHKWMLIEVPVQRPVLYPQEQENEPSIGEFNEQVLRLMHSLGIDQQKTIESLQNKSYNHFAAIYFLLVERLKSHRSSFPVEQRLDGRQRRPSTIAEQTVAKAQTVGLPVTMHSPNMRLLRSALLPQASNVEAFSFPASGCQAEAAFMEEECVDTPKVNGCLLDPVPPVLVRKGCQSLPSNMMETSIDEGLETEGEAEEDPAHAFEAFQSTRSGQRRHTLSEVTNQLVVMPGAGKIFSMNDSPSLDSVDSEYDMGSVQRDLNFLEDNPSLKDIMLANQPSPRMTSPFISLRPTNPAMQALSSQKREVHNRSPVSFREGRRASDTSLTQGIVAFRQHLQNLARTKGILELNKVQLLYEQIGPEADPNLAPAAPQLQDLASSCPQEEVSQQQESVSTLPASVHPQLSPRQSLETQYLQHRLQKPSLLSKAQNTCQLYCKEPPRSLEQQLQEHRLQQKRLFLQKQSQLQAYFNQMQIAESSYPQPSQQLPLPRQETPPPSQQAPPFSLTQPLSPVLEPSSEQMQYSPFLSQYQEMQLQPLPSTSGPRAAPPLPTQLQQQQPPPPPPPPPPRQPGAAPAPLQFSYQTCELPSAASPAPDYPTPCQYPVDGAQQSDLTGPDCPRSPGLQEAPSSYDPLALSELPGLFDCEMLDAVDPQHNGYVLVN
MAP kinase-activated protein kinase 2, sequence (P49137 whole entry, looked up): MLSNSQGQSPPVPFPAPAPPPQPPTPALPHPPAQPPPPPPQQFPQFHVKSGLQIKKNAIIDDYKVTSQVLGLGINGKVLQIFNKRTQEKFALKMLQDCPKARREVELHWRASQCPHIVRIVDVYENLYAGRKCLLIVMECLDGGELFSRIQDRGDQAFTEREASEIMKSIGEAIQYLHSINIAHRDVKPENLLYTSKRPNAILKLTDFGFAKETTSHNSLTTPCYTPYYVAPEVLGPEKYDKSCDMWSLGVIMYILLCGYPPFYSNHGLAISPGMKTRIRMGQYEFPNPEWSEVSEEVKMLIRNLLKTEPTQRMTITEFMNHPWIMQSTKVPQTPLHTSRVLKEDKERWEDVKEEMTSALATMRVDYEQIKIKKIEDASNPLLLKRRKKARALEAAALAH
Casein kinase I isoform gamma-2 (Homo sapiens), sequence (P78368 whole entry, looked up, canonical isoform): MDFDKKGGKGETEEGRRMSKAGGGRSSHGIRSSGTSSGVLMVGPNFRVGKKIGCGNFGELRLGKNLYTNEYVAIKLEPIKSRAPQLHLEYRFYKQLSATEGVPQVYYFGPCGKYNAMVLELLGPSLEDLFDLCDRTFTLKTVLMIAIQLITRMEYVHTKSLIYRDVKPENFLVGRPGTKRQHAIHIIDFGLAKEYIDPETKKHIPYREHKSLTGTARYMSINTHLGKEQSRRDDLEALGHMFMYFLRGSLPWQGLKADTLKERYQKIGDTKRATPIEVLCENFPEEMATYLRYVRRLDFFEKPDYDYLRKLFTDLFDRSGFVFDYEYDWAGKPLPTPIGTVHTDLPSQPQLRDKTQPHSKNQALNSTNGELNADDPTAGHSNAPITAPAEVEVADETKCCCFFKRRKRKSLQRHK

Consider `CCc1cc(Nc2nccc(-c3c(-c4ccc(OC)c(C(=O)Nc5c(F)cccc5F)c4)nc4ccccn34)n2)c(OC)cc1N1CCC(N2CCN(S(C)(=O)=O)CC2)CC1`, for which the % of inhibition at Activated CDC42 kinase 1 worked out at 34%.
Consider `CCN(CC)CCCCNc1ncc2cc(-c3cc(OC)cc(OC)c3)c(NC(=O)NC(C)(C)C)nc2n1`, for which the % of control in [1] is 100%.
Turning to `Nc1cnc(N2CCc3cc(S(=O)(=O)Nc4c(F)cc(Cl)cc4F)cc(N4CCCC4=O)c32)nc1` [TP-020n], in test [2], the % of control amounted to 100%.
On to `CCC(=O)N1CCN(c2ccc(-n3c(=O)ccc4cnc5ccc(-c6cnc7ccccc7c6)cc5c43)cc2C(F)(F)F)CC1`, for which the % of control in test [3] was found to be 100%; in test [4] it was 77%.
For the compound `Cc1cnc(Nc2ccc(F)cc2Cl)nc1-c1c[nH]c(C(=O)N[C@H](CO)c2cccc(Cl)c2)c1`, the % of inhibition in test [5] is 0%.
As for `CNC(=O)Nc1ccc(-c2nc(N3CC4CCC(C3)O4)c3cnn(C4CCC5(CC4)OCCO5)c3n2)cc1`, the % of inhibition in test [6] was -6%.
As for `CC[C@@H]1[C@H](F)C(=O)N[C@@H]1COc1nccc2cc(C(N)=O)c(OC)cc12` [ZIMLOVISERTIB], in [7], the % of inhibition is -31.2%.
Regarding `COCC(=O)NC/C=C/c1ccc2ncnc(Nc3ccc(Oc4ccc(C)nc4)c(C)c3)c2c1` [CP-724714], the % of control in [8] worked out at 100%.
